According to paper PMC7351026, “Serum Half-Lives for Short- and Long-Chain Perfluoroalkyl Acids after Ceasing Exposure from Drinking Water Contaminated by Firefighting Foam” (Environmental Health Perspectives, 2020):
Values joined by “and” are separate entries in the source; they are usually repeats but may differ in a detail not shown here. Equal entries are not always repeated. Marks after values point to notes of the source that are not given here.

Assays:
[1] = PFAS levels in serum samples of airport employees (LC/MS/MS)
Description: All 26 employees at the airport were invited for a blood sampling between 11 and 14 September 2018 (i.e., within 11 to 14 d after the termination of contaminated drinking-water exposure). Information on age, home address, employment history, working tasks, and sick leave and vacation days in August and September were collected by questionnaire. In addition, data on the number of glasses of water consumed per day, local fish consumption, and history of blood donation and medication were collected. For female employees, questions about menstruation, pregnancy, and duration of breast-feeding were asked.
The PFAS analysis in serum from the first sampling was immediately performed and personal results were reported to the employees. […] These 17 employees submitted four rounds of blood and first morning urine samples in parallel, at 1-month intervals. In total, there were five rounds of serum sampling (started from September) and four rounds of urine sampling (from October). For modeling of elimination, all samples were reanalyzed in a single batch. We obtained 83 serum samples with a median count of 5 (range: 4–5) samples per employee, and 59 urine samples with median of 4 (range: 1–4) samples per employee. Only one employee provided a single urine sample. The study was approved by the Regional Ethical Review Board in Lund, Sweden. All employees provided written informed consent.
Venous whole blood samples were obtained and were centrifuged for 10 min at 1,500×g at room temperature to isolate the serum on site. The serum samples were collected in 6-mL BD Vacutainer® Plus plastic serum tubes without gel (BD). Urine samples were collected in 13-mL polypropylene screw cap tubes (Sarstedt). Serum and urine samples were frozen at −20°C after sampling and transported to Lund using cold chain logistics. Serum and urine samples were stored at −80°C and −20°C , respectively, before analysis.
The serum samples, QC samples, and chemical blanks were prepared in 96-well plates with 1.5-mL flat-bottom glass vials (Biotech solutions). Serum samples were thawed for 1–2 h and mixed on a vortex shaker for approximately 10 s two times. Once after all samples were thawed and a second time before pipetting the serum to the plate. Before pipetting, the tip was pre-wetted several times, drawing a volume into the tip and dispensing it back into the tube. Sample preparation procedures for serum samples consisted of 25μL serum mixed with 25μL water, 25μL methanol, 25μL isotopically labeled internal standards in 50% acetonitrile (see Table S1), and 100μL acetonitrile. Thereafter, samples were mixed vigorous by shaking for 30 min and centrifuged at 2,600×g for 10 min at room temperature. The supernatant ( 0.2mL ) was transferred to 96-well plates with 0.5-mL conical glass vials (MicroLiter Analytical Supplies) and again centrifuged at 3,000×g for 10 min before analysis. The QC samples and chemical blanks were prepared following the same procedure as the serum samples. The calibration standards were prepared in FBS the same way as the samples, except for the addition of diluted reference standards of all analyzed compounds in 25μL of the methanol solution.
Aliquots of 4μL of the sample were analyzed using LC/MS/MS. For the analysis, a C18 column ( 4μm , 2.1mm i.d.×50mm , Genesis Lightning) was used prior to the injector to filter the mobile phases. The analytical column was an Aquity BEH ( 1.7μm , 2.1mm i.d.×100mm Waters). The mobile phases (A and B) were A: 5 mM ammonium acetate in water:methanol (50:50); and B: methanol. The mobile phase was kept at 0% B for 2.5 min after injection. A gradient was then applied over 11 min to 90% B, where it was then kept for 1.5 min. The column was then conditioned at 0% B for 2 min.

[2] = Individual serum elimination rate and half-life (linear regression per employee); details: individual estimate;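 as to HL (half-life): half-life in years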
Protocol: Serum PFAS concentrations were log-transformed. Time was calculated as the elapsed days between supply of clean bottled water and […] blood sampling. We assumed one compartment, first-order elimination kinetics. In this kinetic model, the body is considered as one homogeneous volume in which mixing is instantaneous and from which PFAS could be absorbed, transferred, and eliminated according to the rate of elimination that is proportional to the concentration of PFAS in the body. Two methods were used to estimate serum elimination rate constant (k) and half-life for each PFAS:
Method 2: For estimation of individual k, linear regression was used to derive the slope ( β ) of the logarithm of serum concentrations vs. time for each employee. The negative value of the slope ( −β ) for each individual was equivalent to the individual k, and individual serum elimination half-life was calculated as ln2/k for each PFAS. If β was positive (i.e., PFAS concentrations tended to increase over the five samplings), the half-life was not calculated.

[3] = 1st sampling (September 2018), count 17
[4] = 2nd sampling (October 2018), count 17
[5] = 3rd sampling (November, 2018), count 17
[6] = 4th sampling (December 2018), count 16
[7] = 5th sampling (January 2019), count 16
[8] = first serum samples, all 26 airport employees
[9] = median of first serum samples, all 26 airport employees

O=S(=O)(O)C(F)(F)C(F)(F)C(F)(F)C(F)(F)F [PFBS, perfluorobutane sulfonic acid]
Serum PFAS level, 25 percentile [1, 3]: 0.32
Serum PFAS level, 75 percentile [1, 3]: 0.68
Serum PFAS level, Max [1, 3]: 1.3
Serum PFAS level, Median [1, 3]: 0.46
Serum PFAS level, Min [1, 3]: 0.22
Serum PFAS level, 25 percentile [1, 4]: 0.11
Serum PFAS level, 75 percentile [1, 4]: 0.31
Serum PFAS level, Max [1, 4]: 0.70
Serum PFAS level, Median [1, 4]: 0.17
Serum PFAS level, Min [1, 4]: < LOD
Serum PFAS level, 25 percentile [1, 5]: < LOD
Serum PFAS level, 75 percentile [1, 5]: 0.28
Serum PFAS level, Max [1, 5]: 0.65
Serum PFAS level, Median [1, 5]: 0.09
Serum PFAS level, Min [1, 5]: < LOD
Serum PFAS level, 25 percentile [1, 6]: < LOD
Serum PFAS level, 75 percentile [1, 6]: 0.24
Serum PFAS level, Max [1, 6]: 0.52
Serum PFAS level, Median [1, 6]: 0.08
Serum PFAS level, Min [1, 6]: < LOD
Serum PFAS level, 25 percentile [1, 7]: < LOD
Serum PFAS level, 75 percentile [1, 7]: 0.11
Serum PFAS level, Max [1, 7]: 0.30
Serum PFAS level, Median [1, 7]: 0.06
Serum PFAS level, Min [1, 7]: < LOD
Serum level in the first samples, median (range) ([1]; all 26 airport employees): 0.33 ( <LOD –1.3) ng/mL
PFAS in first serum sample, median (range) ([1]; employees participated in first blood sampling and repeated blood and urine sampling, N=17): 0.46 ng/mL and 0.46 (0.22–1.3) ng/mL
PFAS in first serum sample, median (range) ([1]; employees participated in first blood sampling only, N=9, 11-14 d after end of exposure): 0.10 ( <LOD –1.0)^d ng/mL
Initial serum PFAS level, max ([1]; females (N=7)): 1.3 ng/mL
Initial serum PFAS level, median ([1]; females (N=7)): 0.39 ng/mL
Initial serum PFAS level, min ([1]; females (N=7)): 0.06 ng/mL
Relative composition of PFAS in serum, molar concentration basis [1, 8]: 0.4%
Relative composition of PFAS in serum, weight basis [1, 8]: 0.3%
Initial serum PFAS level, Max ([1]; males (N=19)): 1.1 ng/mL
Initial serum PFAS level, Min ([1]; males (N=19)): < LOD
Initial serum PFAS level, median ([1]; males (N=19)): 0.32 ng/mL
Serum concentration, molar basis [1, 9]: 0.0011
Serum concentration, weight basis [1, 9]: 0.33
Elimination rate ([2]; subject 1, 5 samples): 3.2 yearly
HL (half-life) ([2]; subject 1, 5 samples): 0.2 year
Elimination rate ([2]; subject 2, 5 samples): 4.0 yearly
HL (half-life) ([2]; subject 2, 5 samples): 0.2 year
Elimination rate ([2]; subject 3, 5 samples): 5.1 yearly
HL (half-life) ([2]; subject 3, 5 samples): 0.1 year
Elimination rate ([2]; subject 4, 5 samples): 3.1 yearly
HL (half-life) ([2]; subject 4, 5 samples): 0.2 year
Elimination rate ([2]; subject 5, 5 samples): 3.0 yearly
HL (half-life) ([2]; subject 5, 5 samples): 0.2 year
Elimination rate ([2]; subject 6, 4 samples): 2.9 yearly
HL (half-life) ([2]; subject 6, 4 samples): 0.2 year
Elimination rate ([2]; subject 7, 5 samples): 6.2 yearly
HL (half-life) ([2]; subject 7, 5 samples): 0.1 year
Elimination rate ([2]; subject 8, 5 samples): 4.4 yearly
HL (half-life) ([2]; subject 8, 5 samples): 0.2 year
Elimination rate ([2]; subject 9, 5 samples): 11.7 yearly
HL (half-life) ([2]; subject 9, 5 samples): 0.1 year
Elimination rate ([2]; subject 10, 5 samples): 3.8 yearly
HL (half-life) ([2]; subject 10, 5 samples): 0.2 year
Elimination rate ([2]; subject 11, 5 samples): 7.1 yearly
HL (half-life) ([2]; subject 11, 5 samples): 0.1 year
Elimination rate ([2]; subject 12, 5 samples): 5.4 yearly
HL (half-life) ([2]; subject 12, 5 samples): 0.1 year
Elimination rate ([2]; subject 13, 5 samples): 6.2 yearly
HL (half-life) ([2]; subject 13, 5 samples): 0.1 year
Elimination rate ([2]; subject 14, 4 samples): 10.7 yearly
HL (half-life) ([2]; subject 14, 4 samples): 0.1 year
Elimination rate ([2]; subject 15, 5 samples): 5.7 yearly
HL (half-life) ([2]; subject 15, 5 samples): 0.1 year
Elimination rate ([2]; subject 16, 5 samples): 3.6 yearly
HL (half-life) ([2]; subject 16, 5 samples): 0.2 year
Elimination rate ([2]; subject 17, 5 samples): 10.4 yearly
HL (half-life) ([2]; subject 17, 5 samples): 0.1 year
